{"source": "patent US12583851B2", "about": "“Heteroaryl-substituted pyrazine derivatives as pesticides” (Elanco Animal Health GmbH, priority 2019, dated 2026)", "assay_type_in_all_cases": "in vivo", "key": {"[1]": {"test_system": "adult flies Musca domestica strain WHO-N", "assay": "Musca domestica test (MUSCDO surface treatment & contact assay)", "settings": "24 hours after contact, read-out: mortality (efficacy); for mortality at 20 mg/m2: surface concentration 20 mg/m^2, 30 minutes exposure", "procedure": "Musca domestica Test (MUSCDO Surface Treatment & Contact Assay)\n(§1) Solvent: Aceton+2000 ppm rapeseed oil methyl ester (RME)\n(§2) In order to produce a sufficient, active ingredient containing solution it is necessary to solve the test compound in the solvent-mix (acetone at 2 mg/ml/RME 2000 ppm). This solution is pipetted onto a glazed tile and after evaporation of the acetone, adult flies of the species Musca domestica strain WHO-N are placed onto the dried surface. The exposure time is 30 minutes.\n(§3) Mortality in percent (%) is determined 24 hours after contact of the insects to the treated surface. 100% mortality means that all tested insects are dead, whereas 0% means that no insect died."}, "[2]": {"test_system": "brown planthopper (Nilaparvata lugens)", "assay": "Nilaparvata lugens spray test", "settings": "96 h, 100 g/ha, rice plants, after 4 days", "procedure": "Nilaparvata lugens—Spray Test\nSolvent: 78.0 parts by weight of acetone • • 1.5 parts by weight of dimethylformamide\n(§4) Emulsifier: alkylarylpolyglycol ether\n(§5) To produce a suitable preparation of active compound, 1 part by weight of active compound is mixed with the stated amount of solvents and is diluted with water, containing an emulsifier concentration of 1000 ppm, to the desired concentration. Further test concentrations are prepared by dilution with emulsifier containing water.\nRice plants (Oryza sativa) are sprayed with a preparation of the active ingredient of the desired concentration and the plants are infested with the brown planthopper (Nilaparvata lugens).\nAfter 4 days mortality in % is determined. 100% means all planthoppers have been killed and 0% means none of the planthoppers have been killed."}, "[3]": {"test_system": "green peach aphid (Myzus persicae)", "assay": "Myzus persicae spray test", "settings": "foliar, 120 h, Chinese cabbage leaf disks, after 5 days", "procedure": "Myzus persicae—Spray Test\nSolvent: 78.0 parts by weight acetone • 1.5 parts by weight dimethylformamide\nas §4, §5\nChinese cabbage (Brassica pekinensis) leaf disks infected with all instars of the green peach aphid (Myzus persicae), are sprayed with a preparation of the active ingredient of the desired concentration.\nAfter 5 days mortality in % is determined. 100% means all aphids have been killed and 0% means none of the aphids have been killed."}, "[4]": {"test_system": "adult mosquitoes Aedes aegypti strain MONHEIM", "assay": "Aedes aegypti test (AEDSAE surface treatment & contact assay)", "settings": "24 hours after contact, read-out: mortality (efficacy); for mortality at 4 mg/m2: surface concentration 4 mg/m^2, 30 minutes exposure; for mortality at 20 mg/m2: surface concentration 20 mg/m^2, 30 minutes exposure", "procedure": "Aedes aegypti Test (AEDSAE Surface Treatment & Contact Assay)\nas §1\nas §2, with “mosquitoes” for “flies”, “Aedes aegypti” for “Musca domestica”, “MONHEIM” for “WHO-N”\nas §3"}, "[5]": {"test_system": "adult cat fleas (Ctenocephalides felis)", "assay": "Ctenocephalides felis in-vitro contact test, adult cat flea", "settings": "5 μg/cm^2 (=500 g/ha), after 48 hours, read-out: efficacy (fleas dead or moribund)", "how_it_was_run": "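Acetone solution coated onto glass tube walls; 900 ppm gives 5 μg/cm². Once dry, 5–10 adult fleas per tube held at room temperature for 48 h. Efficacy (%) is the share of fleas dead or moribund, i.e. unable to climb away on a 45–50° C heating plate.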"}, "[6]": {"test_system": "adult brown dog ticks (Rhipicephalus sanguineus)", "assay": "Rhipicephalus sanguineus in-vitro contact test, adult brown dog ticks", "settings": "48 h, 5 μg/cm^2 (=500 g/ha), after 48 hours, read-out: efficacy (ticks dead or moribund)", "how_it_was_run": "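Acetone solution coated on glass tube inner walls (900 ppm, giving 5 μg/cm^2); after drying, 5–10 adult ticks added and kept 48 h at room temperature. Efficacy scored as percent dead or moribund, i.e., ticks unable to climb away on a 45–50 °C heating plate within 5 min.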"}}, "data": [{"smiles": "CC(NC(=O)c1cc(C(F)(F)F)cc(C(F)(F)F)c1)c1nccnc1-c1ncccn1", "note": "(racemic) [Example I-8, (rac)-N-(1-(3-(Pyrimidin-2-yl)pyrazin-2-yl)ethyl)-3,5-bis(trifluoromethyl)benzamide]", "values": [{"measurement": "mortality at 4 mg/m2", "setting": "[1]; surface concentration 4 mg/m^2, 30 minutes exposure", "value": "80 to 100", "unit": "%"}, {"measurement": "mortality at 20 mg/m2", "setting": "[1]", "value": "80 to 100", "unit": "%"}, {"measurement": "mortality at 100 g/ha", "setting": "[2]", "value": 100, "unit": "%"}, {"measurement": "mortality at 100 g/ha", "setting": "[3]", "value": 100, "unit": "%"}, {"measurement": "mortality at 4 mg/m2", "setting": "[4]", "value": "80 to 100", "unit": "%"}, {"measurement": "mortality at 20 mg/m2", "setting": "[4]", "value": "80 to 100", "unit": "%"}]}, {"smiles": "CC(NC(=O)c1cc(Cl)cc(C(F)(F)F)c1)c1nccnc1-c1ncccn1", "note": "(racemic) [Example I-10, (rac)-3-Chloro-N-(1-(3-(pyrimidin-2-yl)pyrazin-2-yl)ethyl)-5-(trifluoromethyl)benzamide]", "values": [{"measurement": "mortality at 20 mg/m2", "setting": "[1]", "value": "80 to 100", "unit": "%"}, {"measurement": "mortality at 100 g/ha", "setting": "[3]", "value": 100, "unit": "%"}, {"measurement": "pest or weed control at 5 µg/cm2, 500 g/ha", "setting": "[5]", "value": 80, "unit": "%"}, {"measurement": "pest or weed control at 5 µg/cm2, 500 g/ha", "setting": "[6]", "value": 80, "unit": "%"}, {"measurement": "mortality at 4 mg/m2", "setting": "[4]", "value": "80 to 100", "unit": "%"}, {"measurement": "mortality at 20 mg/m2", "setting": "[4]", "value": "80 to 100", "unit": "%"}]}]}
